Results taken from patent US20250135006A1, “AMPHIPHILIC TLR7/8 ADJUVANTS AND USES THEREOF” (Pfizer Inc., priority 2023, published 2025).

How the values were obtained:
[1] = biological target: T1, human toll like receptor 8 (hTLR8) (Homo sapiens, UniProt Q9NR97); test: hTLR8 in-vitro functional assay (HEK-Blue hTLR8 SEAP reporter); format: cell-based; conditions: HEK-Blue hTLR8 cells, overnight incubation
T1 construct: host or cells: HEK293 (HEK-Blue hTLR8)
T1 sequence (Q9NR97 27-1041): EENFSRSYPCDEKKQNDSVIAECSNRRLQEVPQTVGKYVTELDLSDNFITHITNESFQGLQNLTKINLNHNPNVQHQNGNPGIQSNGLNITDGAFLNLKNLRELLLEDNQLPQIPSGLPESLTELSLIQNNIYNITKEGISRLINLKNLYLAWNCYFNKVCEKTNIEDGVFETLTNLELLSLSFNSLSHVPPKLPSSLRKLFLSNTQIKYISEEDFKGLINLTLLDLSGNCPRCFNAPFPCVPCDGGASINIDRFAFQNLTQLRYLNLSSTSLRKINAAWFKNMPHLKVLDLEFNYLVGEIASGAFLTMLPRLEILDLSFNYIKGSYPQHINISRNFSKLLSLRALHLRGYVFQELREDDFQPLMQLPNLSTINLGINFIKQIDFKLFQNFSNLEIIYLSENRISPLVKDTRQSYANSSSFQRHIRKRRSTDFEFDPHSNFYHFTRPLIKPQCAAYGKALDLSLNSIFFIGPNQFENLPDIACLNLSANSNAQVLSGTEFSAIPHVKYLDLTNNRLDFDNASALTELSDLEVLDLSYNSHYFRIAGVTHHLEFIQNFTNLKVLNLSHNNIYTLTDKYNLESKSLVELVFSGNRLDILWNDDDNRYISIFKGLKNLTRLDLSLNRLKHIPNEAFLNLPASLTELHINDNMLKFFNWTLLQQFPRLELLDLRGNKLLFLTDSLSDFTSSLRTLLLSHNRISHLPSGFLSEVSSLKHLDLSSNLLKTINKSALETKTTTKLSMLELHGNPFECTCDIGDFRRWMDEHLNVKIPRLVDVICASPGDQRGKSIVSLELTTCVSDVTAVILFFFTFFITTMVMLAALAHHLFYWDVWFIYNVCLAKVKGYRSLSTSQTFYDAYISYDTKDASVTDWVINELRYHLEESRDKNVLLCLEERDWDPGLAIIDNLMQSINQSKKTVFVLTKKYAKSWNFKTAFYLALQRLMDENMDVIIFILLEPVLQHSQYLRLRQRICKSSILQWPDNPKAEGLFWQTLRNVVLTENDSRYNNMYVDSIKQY
From the text: (§1) To determine the ability of test compounds to activate the human toll like receptor 7 (hTLR7) or human toll like receptor 8 (hTLR8), cell-based reporter systems were utilized. HEK293 cells stably overexpressing either hTLR7 or hTLR8 along with a reporter gene containing an optimized secreted embryonic alkaline phosphatase gene (SEAP), under the control of the IFN-b minimal promoter fused to five NF-kB and AP-1-binding sites, were obtained from Invivogen (HEK-Blue™ hTLR7, cat #Hkb-htlr7; HEK-Blue™ hTLR8, cat #Hkb-htlr8). Stimulation of hTLR7 or hTLR8 in these cells activates NF-kB and AP-1 and induces the production of SEAP which can be quantified using an alkaline phosphatase detection reagent.
(§2) On day one of the assay, compounds were prepared using 11-point half-log serial dilutions from a 10 mM DMSO stock solution and 50 nL was spotted into 384-well plates (PerkinElmer, cat #6007480). Positive and negative controls were also spotted within the assay plate and were used to determine percent effect during the analysis process. After resuspension in DMEM assay media containing FBS heat inactivated (10%), Glutamax (2 mM) and Penicillin/Streptomycin, 10,000 cells/20 ul/well were added to previously prepared compound plates. Plates were incubated overnight (16-20 hrs) at 37° C. in a 5% CO2 environment. Prewetted Microclime lids (Labcyte, LLS-0310) were used to prevent evaporation. On day two of the assay, QUANTI-Blue™ detection reagent was prepared by reconstituting QUANTI-Blue™ powder (InvivoGen, Rep-qb1) with 100 ml of sterile water and allowed to equilibrate to 37° C. for 15 minutes. 20 ul of QUANTI-Blue™ detection reagent was added to each well and plates were incubated at room temperature for 180 min. At the end of the incubation, plates were read on an Envision (Perkin Elmer) plate reader capturing absorbance at 650 nm.
(§3) Using Positive (tool compound) and Negative (DMSO) controls, the percent (%) effect was calculated for each sample using the following equation: […]
(§4) The % effect at each concentration of compound was calculated utilizing the ABase software suite (IBDS) and was relative to the amount of SEAP produced in the positive and negative control wells contained within each assay plate. The concentrations and % effect values for test compounds were fit using a 4-parameter logistic model in ABase and the concentration of compound that produced 50% response (EC50) was calculated.

[2] = biological target: T2, human toll like receptor 7 (hTLR7) (Homo sapiens, UniProt Q9NYK1); test: hTLR7 in-vitro functional assay (HEK-Blue hTLR7 SEAP reporter); format: cell-based; conditions: HEK-Blue hTLR7 cells, overnight incubation
T2 construct: host or cells: HEK293 (HEK-Blue hTLR7)
T2 sequence (Q9NYK1 27-1049): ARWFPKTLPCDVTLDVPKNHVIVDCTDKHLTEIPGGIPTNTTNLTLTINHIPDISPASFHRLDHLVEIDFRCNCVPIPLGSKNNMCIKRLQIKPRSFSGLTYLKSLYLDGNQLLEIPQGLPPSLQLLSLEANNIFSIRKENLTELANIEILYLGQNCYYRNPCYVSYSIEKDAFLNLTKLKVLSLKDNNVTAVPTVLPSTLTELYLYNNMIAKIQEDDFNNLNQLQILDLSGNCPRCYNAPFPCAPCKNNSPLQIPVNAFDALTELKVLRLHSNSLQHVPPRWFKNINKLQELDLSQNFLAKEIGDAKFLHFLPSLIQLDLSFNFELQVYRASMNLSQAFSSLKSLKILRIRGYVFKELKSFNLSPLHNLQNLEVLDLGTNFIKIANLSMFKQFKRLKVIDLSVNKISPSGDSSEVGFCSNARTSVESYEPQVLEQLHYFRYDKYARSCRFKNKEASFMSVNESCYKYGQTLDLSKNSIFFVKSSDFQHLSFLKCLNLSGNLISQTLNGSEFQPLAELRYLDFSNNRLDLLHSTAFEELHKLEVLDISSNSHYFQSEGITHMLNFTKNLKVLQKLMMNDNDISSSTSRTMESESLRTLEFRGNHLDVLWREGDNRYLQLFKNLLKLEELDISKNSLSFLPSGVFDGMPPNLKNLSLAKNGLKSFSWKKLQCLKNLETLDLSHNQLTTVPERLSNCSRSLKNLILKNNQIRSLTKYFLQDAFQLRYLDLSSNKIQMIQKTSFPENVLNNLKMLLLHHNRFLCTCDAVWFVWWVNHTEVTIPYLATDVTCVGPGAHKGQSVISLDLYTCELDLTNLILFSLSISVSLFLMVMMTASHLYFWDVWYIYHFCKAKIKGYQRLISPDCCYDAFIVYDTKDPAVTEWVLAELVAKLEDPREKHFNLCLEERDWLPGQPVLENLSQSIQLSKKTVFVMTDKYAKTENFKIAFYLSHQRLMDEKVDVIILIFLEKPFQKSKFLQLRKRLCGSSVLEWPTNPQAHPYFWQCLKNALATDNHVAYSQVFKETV
From the text: as §1, §2, §3, §4

| Structure (SMILES) | EC50 [1] | EC50 [2] |
| --- | --- | --- |
| CCCCc1nc2c(N)nc3cc(CCCN4CCN(CCCOCCOCCOCCOCCOCCOCCOCCOCCOCCOCCOCCOCCOCCOCCOCCOCCOCCOCCOCCOCCOCCOCCOCCOCCNC(=O)O[C@H]5CC[C@@]6(C)C(=CC[C@H]7[C@@H]8CC[C@H]([C@H](C)CCCC(C)C)[C@@]8(C)CC[C@@H]76)C5)CC4)ccc3c2n1CC(C)(CO)CO [Compound 16, (20R)-cholest-5-en-3beta-yl {75-[4-(3-{4-amino-2-butyl-1-[3-hydroxy-2-(hydroxymethyl)-2-methylpropyl]-1H-imidazo[4,5-c]quinolin-7-yl}propyl)piperazin-1-yl]-3,6,9,12,15,18,21,24,27,30,33,36,39,42,45,48,51,54,57,60,63,66,69,72-tetracosaoxapentaheptacontan-1-yl}carbamate] | > 25000 nM | 278 nM |
| CCCCc1nc2c(N)nc3cc(CCCN4CCN(CCCOCCOCCOCCOCCOCCOCCOCCOCCOCCOCCOCCOCCOCCOCCOCCOCCOCCOCCOCCOCCOCCOCCOCCOCCNC(=O)CCOCCOCCOCCOCCNC(=O)O[C@H]5CC[C@@]6(C)C(=CC[C@H]7[C@@H]8CC[C@H]([C@H](C)CCCC(C)C)[C@@]8(C)CC[C@@H]76)C5)CC4)ccc3c2n1CC(C)(CO)CO [Compound 17, (3beta)-cholest-5-en-3-yl {91-[4-(3-{4-amino-2-butyl-1-[3-hydroxy-2-(hydroxymethyl)-2-methylpropyl]-1H-imidazo[4,5-c]quinolin-7-yl}propyl)piperazin-1-yl]-15-oxo-3,6,9,12,19,22,25,28,31,34,37,40,43,46,49,52,55,58,61,64,67,70,73,76,79,82,85,88-octacosaoxa-16-azahennonacont-1-yl}carbamate] | 2610 nM | 282 nM |
| CCCCc1nc2c(N)nc3cc(CCCN4CCN(CCCOCCOCCNC(=O)O[C@H]5CC[C@@]6(C)C(=CC[C@H]7[C@@H]8CC[C@H]([C@H](C)CCCC(C)C)[C@@]8(C)CC[C@@H]76)C5)CC4)ccc3c2n1CC(C)(CO)CO [Compound 18, (20R)-cholest-5-en-3beta-yl [2-(2-{3-[4-(3-{4-amino-2-butyl-1-[3-hydroxy-2-(hydroxymethyl)-2-methylpropyl]-1H-imidazo[4,5-c]quinolin-7-yl}propyl)piperazin-1-yl]propoxy}ethoxy)ethyl]carbamate] | 9900 nM | 288 nM |
| CCCCc1nc2c(N)nc3cc(CCCN4CCN(C(=O)CCOCCOCCOCCOCCOCCOCCOCCOCCNC(=O)O[C@H]5CC[C@@]6(C)C(=CC[C@H]7[C@@H]8CC[C@H]([C@H](C)CCCC(C)C)[C@@]8(C)CC[C@@H]76)C5)CC4)ccc3c2n1CC(C)(CO)CO [Compound 19, (20R)-cholest-5-en-3beta-yl {27-[4-(3-{4-amino-2-butyl-1-[3-hydroxy-2-(hydroxymethyl)-2-methylpropyl]-1H-imidazo[4,5-c]quinolin-7-yl}propyl)piperazin-1-yl]-27-oxo-3,6,9,12,15,18,21,24-octaoxaheptacosan-1-yl}carbamate] | 20200 nM | 362 nM |
| CCCCc1nc2c(N)nc3cc(CCCN4CCN(C(=O)CCOCCOCCOCCOCCOCCOCCOCCOCCOCCOCCOCCOCCNC(=O)O[C@H]5CC[C@@]6(C)C(=CC[C@H]7[C@@H]8CC[C@H]([C@H](C)CCCC(C)C)[C@@]8(C)CC[C@@H]76)C5)CC4)ccc3c2n1CC(C)(CO)CO [Compound 20, (20R)-cholest-5-en-3beta-yl {39-[4-(3-{4-amino-2-butyl-1-[3-hydroxy-2-(hydroxymethyl)-2-methylpropyl]-1H-imidazo[4,5-c]quinolin-7-yl}propyl)piperazin-1-yl]-39-oxo-3,6,9,12,15,18,21,24,27,30,33,36-dodecaoxanonatriacontan-1-yl}carbamate] | 21800 nM | 443 nM |
